Reference: patent US6703237B2, “Methods and formulations for mediating adeno-associated virus (AAV) attachment and infection and methods for purifying AAV” (priority 1998, dated 2004)

Legend:
rAAV-LacZ [1] = details: 20 mM EDTA; HeLa cells; MOI 2
Procedure: (§1) HeLa cells were infected with recombinant virus (rAd-LacZ [FIG. 11A], rAAV-LacZ [FIG. 11B]) at an MOI of 2 either in the presence or absence of divalent cation chelator EDTA (20 mM) as described in methods. 24 h post Ad infection, and 36 h post AAV infection, cells were fixed and stained for β-galactosidase activity (upper panel). Transduction has been quantitated in the lower panel as the percentage of HeLa cells transduced in the presence or absence of EDTA.
(§2) All infectivity and binding assays were done in suspension in a buffer determined to result in maximum cell viability, HEPES-buffered saline (HBS) containing 1% BSA (HBSB) (Sambrook et al., (1989) Molecular Cloning, A Laboratory Manual, (N. Ford et al., eds.), Cold Spring Harbor Laboratory Press, New York). Adherent cells were first detached with 10 mM EDTA followed by two washes in phosphate buffered saline (PBS) containing […] CaCl2 and 0.5 mM MgCl2 and one wash in HBS. To assess the effect of EDTA on AAV transduction, HeLa cells were incubated with recombinant virus at an MOI of 2 in HBS±20 mM EDTA for 1 hour at 4° C. After washing in HBS±EDTA to remove unbound virus, cells were resuspended in HBS±5 mM EDTA and placed at 37° C. for 30 minutes.

rAd-LacZ [2] = details: 20 mM EDTA; HeLa cells; MOI 2
Procedure: as §1, §2

rAd-LacZ [3] = details: Svensson and Persson 1984; cited from earlier work
rAAV-LacZ [4] = assay: Inhibition of rAAV-LacZ transduction of HeLa cells by soluble GAGs; assay type: cell-based, AAV-2; details: HeLa cells preincubated with heparin up to 20 μg/ml, washed before infection
Procedure: FIGS. 1A and 1B illustrate the inhibition of AAV infection by various glycosaminoglycans. In the data shown in FIG. 1A, rAAV was incubated with the indicated concentrations of heparin (solid squares), chondroitin sulfate B (dermatan sulfate) (open circles), chondroitin sulfate A (open diamonds) or chondroitin sulfate C (open triangles) for 1 hour at 37° C. prior to a 1-hour adsorption period of the virus/GAG mixture to HeLa cells for infection. β-galactosidase activity was assayed 44 hours post-infection using a Galacto-Light Plus kit (Tropix Inc.), and measured in a luminometer. Each point denotes the average % decrease in Relative Light Units (RLU) per ug of protein relative to the maximum RLU/μg protein obtained in experiments without GAG. In the data shown in FIG. 1B, HeLa cells were preincubated with increasing concentrations of heparin at 37° C. for 1 hour. After thorough washing, cells were infected with rAAV as described above. Data points represent the average % maximum RLU/ug protein obtained without heparin preincubation.
rAAV-LacZ at an MOI of 2 was incubated in DMEM-H media in the presence or absence of indicated soluble GAGs at 1.0, 5.0, 10, 20, 30 μg/ml for 1 h at 37° C. For infection, rAAV-LacZ or the virus/GAG mixture was incubated with 2×10^5 HeLa cells for 1 h at 37° C. in a 5% CO2 chamber. […]

rAAV-LacZ [5] = assay: rAAV-lacZ transduction of HeLa cells with low concentrations of heparin; assay type: cell-based, AAV-2; details: heparin 0.001 and 0.004 μg/mL, 48 h after infection
Procedure: HeLa cells were infected with rAAV-lacZ virus in the presence or absence of heparin, at the indicated concentrations, for one hour at 37° C. […] Results are reported as the mean and standard deviation of one experiment performed in triplicate.
HeLa cells were infected with rAAV-lacZ virus in the presence or absence of heparin, at concentrations of 0 μg/mL, 0.001 μg/mL, and 0.004 μg/mL, for one hour at 37° C. […] The results of this experiment are shown in FIG. 6 as the mean and standard deviation of one experiment performed in triplicate.

3H-wt AAV-2 = assay: Inhibition of 3H-wt AAV-2 binding to HeLa cells by soluble GAGs; details: 5 μg/ml, 90 min at 4° C.
Procedure: FIG. 2 illustrates that soluble heparin inhibits binding of AAV to the cell surface. After pre-incubation of 3H-wt AAV-2 with increasing concentrations of the indicated GAGs or the GAG analogue dextran sulfate, labeled virus was adsorbed to HeLa cells for 90 minutes at 4° C. Unbound virus was removed by three washes with ice cold binding buffer and radioactivity was quantitated as described in methods. Data is represented as the average % inhibition relative to the CPM bound in the absence of soluble GAG.
For direct binding assays, ^3H-labeled wtAAV-2 was incubated with cells either attached to plates or in suspension, as indicated, at a ratio of 4×10^11 particles/3×10^5 cells for 90 minutes at 4° C. in HBSB. Cells were then washed 3 times in ice cold HBSB to remove unbound virus, and were solubilized in 0.3 N NaOH. After neutralization with glacial acetic acid, cell-associated radioactivity was quantitated in a scintillation counter. For inhibition studies, and after enzymatic treatments, ^3H-AAV was bound to adherent HeLa cells. Binding to wild type CHO and CHO cell mutants was done with suspended cells. […] Non-specific binding was determined in the presence of 100-fold excess unlabeled wt AAV (previously dialyzed in HBS, 10% glycerol). Binding of Cy3-labeled virus was done on wild type CHO and pgsA-745 cells grown on coverslips. After fixation in 4% paraformaldehyde for 20 minutes at room temperature, cells were mounted on slides and bound Cy3 labeled virus was detected by confocal microscopy. […]
To further examine the observed specificity and to determine whether GAGs were inhibiting binding of the AAV virions to the cell surface, ^3H-wt AAV was incubated with GAGs (heparin, dermatan sulfate, chondroitin sulfate A, chondroitin sulfate C, dextran sulfate) at various concentrations. After incubation with cells, the mixture was washed and cells were solubilized to quantify bound virus. […]

| Molecule | inhibition of AAV infection (rAAV-LacZ [1]) | inhibition of recombinant Ad-LacZ transduction (rAd-LacZ [2]) [%] | inhibition of Ad infection, previous published results (rAd-LacZ [3]) | inhibition of rAAV transduction after preincubation of cells (rAAV-LacZ [4]) | effect on rAAV transduction (β-galactosidase, RLU/μg protein) (rAAV-LacZ [5]) | inhibition of AAV binding (3H-wt AAV-2) [%] |
| --- | --- | --- | --- | --- | --- | --- |
| O=C(O)CN(CCN(CC(=O)O)CC(=O)O)CC(=O)O [EDTA, ethylenediaminetetraacetate] | greater than 90% | 40 | 20-50% | – | – | – |
| heparin | – | – | – | less than 20% | enhance rAAV transduction | 90 |
